# Laboratory results taken from PubChem BioAssay (NCI).
# Where “and” joins values, the source holds several entries; their conditions need not be identical. Identical values can stand only once.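 Five concentrations, 48 hours, 96-well plates. Abbreviation: GI50, concentration required for 50% inhibition of growth. At the TGI there is no net growth.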
# Tests used:
# Experiment in all cases: NCI tumour cell line growth inhibition, 48 h
# 786-0 renal = tested on: 786-0 renal
# A498 renal = tested on: A498 renal
# A549 NSCLC = tested on: A549 NSCLC
# ACHN renal = tested on: ACHN renal
# BT-549 breast = tested on: BT-549 breast
# CAKI-1 renal = tested on: CAKI-1 renal
# CCRF-CEM leukemia = tested on: CCRF-CEM leukemia
# COLO 205 colon = tested on: COLO 205 colon
# DLD-1 colon = tested on: DLD-1 colon
# DMS 114 small cell lung = tested on: DMS 114 small cell lung
# DMS 273 small cell lung = tested on: DMS 273 small cell lung
# DU-145 prostate = tested on: DU-145 prostate
# EKVX NSCLC = tested on: EKVX NSCLC
# HCC-2998 colon = tested on: HCC-2998 colon
# HCT-116 colon = tested on: HCT-116 colon
# HCT-15 colon = tested on: HCT-15 colon
# HL-60(TB) leukemia = tested on: HL-60(TB) leukemia
# HOP-18 NSCLC = tested on: HOP-18 NSCLC
# HOP-62 NSCLC = tested on: HOP-62 NSCLC
# HOP-92 NSCLC = tested on: HOP-92 NSCLC
# HT29 colon = tested on: HT29 colon
# IGROV1 ovarian = tested on: IGROV1 ovarian
# K-562 leukemia = tested on: K-562 leukemia
# KM12 colon = tested on: KM12 colon
# KM20L2 colon = tested on: KM20L2 colon
# LOX IMVI melanoma = tested on: LOX IMVI melanoma
# LXFL 529 NSCLC = tested on: LXFL 529 NSCLC
# M14 melanoma = tested on: M14 melanoma
# M19-MEL melanoma = tested on: M19-MEL melanoma
# MALME-3M melanoma = tested on: MALME-3M melanoma
# MCF7 breast = tested on: MCF7 breast
# MDA-MB-231 breast = tested on: MDA-MB-231 breast
# MDA-MB-435 = tested on: MDA-MB-435
# MDA-N = tested on: MDA-N
# MOLT-4 leukemia = tested on: MOLT-4 leukemia
# NCI-H226 lung = tested on: NCI-H226 lung
# NCI-H23 lung = tested on: NCI-H23 lung
# NCI-H460 lung = tested on: NCI-H460 lung
# NCI-H522 lung = tested on: NCI-H522 lung
# NCI/ADR-RES ovarian = tested on: NCI/ADR-RES ovarian
# OVCAR-3 ovarian = tested on: OVCAR-3 ovarian
# OVCAR-4 ovarian = tested on: OVCAR-4 ovarian
# OVCAR-5 ovarian = tested on: OVCAR-5 ovarian
# OVCAR-8 ovarian = tested on: OVCAR-8 ovarian
# P388 leukemia = tested on: P388 leukemia
# P388/ADR leukemia = tested on: P388/ADR leukemia
# PC-3 prostate = tested on: PC-3 prostate
# RPMI-8226 leukemia = tested on: RPMI-8226 leukemia
# RXF 393 renal = tested on: RXF 393 renal
# SF-268 CNS = tested on: SF-268 CNS
# SF-295 CNS = tested on: SF-295 CNS
# SF-539 CNS = tested on: SF-539 CNS
# SK-MEL-2 melanoma = tested on: SK-MEL-2 melanoma
# SK-MEL-28 melanoma = tested on: SK-MEL-28 melanoma
# SK-MEL-5 melanoma = tested on: SK-MEL-5 melanoma
# SK-OV-3 ovarian = tested on: SK-OV-3 ovarian
# SN12C renal = tested on: SN12C renal
# SN12K1 renal = tested on: SN12K1 renal
# SNB-19 CNS = tested on: SNB-19 CNS
# SNB-75 CNS = tested on: SNB-75 CNS
# SNB-78 CNS = tested on: SNB-78 CNS
# SR leukemia = tested on: SR leukemia
# SW-620 colon = tested on: SW-620 colon
# T-47D breast = tested on: T-47D breast
# TK-10 renal = tested on: TK-10 renal
# U251 CNS = tested on: U251 CNS
# UACC-257 melanoma = tested on: UACC-257 melanoma
# UACC-62 melanoma = tested on: UACC-62 melanoma
# UO-31 renal = tested on: UO-31 renal
# XF 498 CNS = tested on: XF 498 CNS
compound,measurement,setting,value
COc1cc(C2c3cc4c(cc3[C@@H](Nc3ccc(F)cc3)C3COC(=O)[C@H]23)OCO4)cc(OC)c1O (stereo not given in full),GI50,786-0 renal,0.567 µM
same,TGI,786-0 renal,5.26 µM
same,GI50,A498 renal,0.878 µM
same,TGI,A498 renal,7.84 µM
same,GI50,A549 NSCLC,0.264 µM
same,TGI,A549 NSCLC,5.17 µM
same,GI50,ACHN renal,0.326 µM
same,TGI,ACHN renal,3.39 µM
same,TGI,BT-549 breast,8.39 µM
same,GI50,CAKI-1 renal,0.29 µM
same,TGI,CAKI-1 renal,4.68 µM
same,GI50,CCRF-CEM leukemia,0.201 µM and 0.347 µM
same,TGI,CCRF-CEM leukemia,19.6 µM
same,TGI,COLO 205 colon,15.6 µM
same,TGI,DLD-1 colon,28.5 µM
same,GI50,DMS 114 small cell lung,0.997 µM
same,TGI,DMS 114 small cell lung,9.63 µM
same,GI50,DMS 273 small cell lung,0.403 µM
same,TGI,DMS 273 small cell lung,6.46 µM
same,TGI,DU-145 prostate,8.89 µM
same,TGI,EKVX NSCLC,12.5 µM
same,TGI,HCC-2998 colon,8.96 µM
same,TGI,HCT-116 colon,22.3 µM
same,TGI,HCT-15 colon,26.1 µM
same,GI50,HL-60(TB) leukemia,0.181 µM and 0.631 µM
same,TGI,HL-60(TB) leukemia,0.839 µM and 6.02 µM
same,TGI,HOP-18 NSCLC,46.8 µM
same,GI50,HOP-62 NSCLC,0.416 µM
same,TGI,HOP-62 NSCLC,3.3 µM
same,TGI,HOP-92 NSCLC,24.8 µM
same,TGI,HT29 colon,18.2 µM
same,TGI,IGROV1 ovarian,42.2 µM
same,TGI,K-562 leukemia,43 µM
same,TGI,KM12 colon,13.5 µM
same,TGI,KM20L2 colon,19.8 µM
same,GI50,LOX IMVI melanoma,0.44 µM
same,TGI,LOX IMVI melanoma,10.5 µM
same,TGI,LXFL 529 NSCLC,46.6 µM
same,GI50,M14 melanoma,0.795 µM
same,TGI,M14 melanoma,17.4 µM
same,TGI,M19-MEL melanoma,42.8 µM
same,TGI,MALME-3M melanoma,13.4 µM
same,TGI,MCF7 breast,> 65.2 µM
same,TGI,MDA-MB-231 breast,17.4 µM
same,TGI,MDA-MB-435,> 100 µM
same,TGI,MDA-N,> 100 µM
same,GI50,MOLT-4 leukemia,0.0657 µM
same,TGI,MOLT-4 leukemia,0.821 µM and 2.26 µM
same,GI50,NCI-H226 lung,0.529 µM
same,TGI,NCI-H226 lung,0.985 µM and 5.18 µM
same,GI50,NCI-H23 lung,0.386 µM
same,TGI,NCI-H23 lung,7.56 µM
same,GI50,NCI-H460 lung,0.124 µM
same,TGI,NCI-H460 lung,4.11 µM
same,GI50,NCI-H522 lung,0.823 µM
same,TGI,NCI-H522 lung,9.12 µM
same,TGI,NCI/ADR-RES ovarian,45.7 µM
same,TGI,OVCAR-3 ovarian,29.5 µM
same,TGI,OVCAR-4 ovarian,49.2 µM
same,TGI,OVCAR-5 ovarian,37 µM
same,GI50,OVCAR-8 ovarian,0.886 µM
same,TGI,OVCAR-8 ovarian,15.6 µM
same,TGI,P388 leukemia,1.61 µM
same,TGI,P388/ADR leukemia,1.63 µM
same,TGI,PC-3 prostate,23.4 µM
same,GI50,RPMI-8226 leukemia,0.531 µM
same,TGI,RPMI-8226 leukemia,17.1 µM
same,TGI,RXF 393 renal,11.4 µM
same,TGI,SF-268 CNS,27.7 µM
same,GI50,SF-295 CNS,0.548 µM
same,TGI,SF-295 CNS,7.26 µM
same,GI50,SF-539 CNS,0.708 µM
same,TGI,SF-539 CNS,6.02 µM
same,TGI,SK-MEL-2 melanoma,19.2 µM
same,TGI,SK-MEL-28 melanoma,48.3 µM
same,GI50,SK-MEL-5 melanoma,0.806 µM
same,TGI,SK-MEL-5 melanoma,8.56 µM
same,TGI,SK-OV-3 ovarian,21 µM
same,GI50,SN12C renal,0.718 µM
same,TGI,SN12C renal,9.64 µM
same,TGI,SN12K1 renal,12.2 µM
same,GI50,SNB-19 CNS,0.569 µM
same,TGI,SNB-19 CNS,33.9 µM
same,GI50,SNB-75 CNS,0.438 µM
same,TGI,SNB-78 CNS,99.2 µM
same,GI50,SR leukemia,0.0567 µM
same,TGI,SR leukemia,0.612 µM and 4.27 µM
same,GI50,SW-620 colon,0.859 µM
same,TGI,SW-620 colon,44.8 µM
same,TGI,T-47D breast,61.3 µM
same,TGI,TK-10 renal,14.8 µM
same,GI50,U251 CNS,0.451 µM
same,TGI,U251 CNS,8.9 µM
same,TGI,UACC-257 melanoma,31.3 µM
same,GI50,UACC-62 melanoma,0.941 µM
same,TGI,UACC-62 melanoma,7.78 µM
same,GI50,UO-31 renal,0.753 µM
same,TGI,UO-31 renal,8.72 µM
same,GI50,XF 498 CNS,0.718 µM
same,TGI,XF 498 CNS,18.2 µM
